From ChEMBL document CHEMBL1201862, “PubChem BioAssay data set” (2004)
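Cells were grown in 96-well plates and exposed to each compound for 48 hours at five concentrations; endpoints were interpolated linearly between bracketing concentrations, or set to the highest concentration if not reached. At the GI50, growth is halved.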 Calls of active or inactive are those of the source. Rule as the data show it: active = GI50 up to about 1.1 µM and inactive = higher.

Columns and labels:
Assay in all cases: DTP human tumour cell line panel, 48 h
EKVX = test system: EKVX
NCI/ADR-RES = test system: NCI/ADR-RES
K562 = test system: K562
UO-31 = test system: UO-31
786-0 = test system: 786-0
IGROV-1 = test system: IGROV-1
NCI-H226 = test system: NCI-H226
T47D = test system: T47D
SW-620 = test system: SW-620
HL-60 = test system: HL-60
UACC-257 = test system: UACC-257
PC-3 = test system: PC-3
MCF7 = test system: MCF7
Hs-578T = test system: Hs-578T
OVCAR-5 = test system: OVCAR-5
SF-539 = test system: SF-539
DU-145 = test system: DU-145
MOLT-4 = test system: MOLT-4
Malme-3M = test system: Malme-3M
OVCAR-4 = test system: OVCAR-4

Row | SMILES | GI50 (EKVX) | GI50 (NCI/ADR-RES) | GI50 (K562) | GI50 (UO-31) | GI50 (786-0) | GI50 (IGROV-1) | GI50 (NCI-H226) | GI50 (T47D) | GI50 (SW-620) | GI50 (HL-60) | GI50 (UACC-257) | GI50 (PC-3) | GI50 (MCF7) | GI50 (Hs-578T) | GI50 (OVCAR-5) | GI50 (SF-539) | GI50 (DU-145) | GI50 (MOLT-4) | GI50 (Malme-3M) | GI50 (OVCAR-4)
1 | CC(=O)O[C@@H]1[C@H](OC2CCCCC2(c2ccccc2)c2ccccc2)O[N+]([O-])=CC12CCCCC2 (stereo not given in full) | 17.9 µM (inactive) | 15.9 µM (inactive) | 54.2 µM (inactive) | 17.5 µM (inactive) | 13.4 µM (inactive) | 20.1 µM (inactive) | 14.1 µM (inactive) | 18.4 µM (inactive) | 16 µM (inactive) | < 0.01 µM (active) | 17.1 µM (inactive) | 10.8 µM (inactive) | 18.2 µM (inactive) | 19.2 µM (inactive) | 15.8 µM (inactive) | 20 µM (inactive) | 18.1 µM (inactive) | 52 µM (inactive) | – | –
2 | Cc1ccc2nc(-c3ccccc3)c(N=O)n2c1 | 20.5 µM (inactive) | 46.2 µM (inactive) | 91.2 µM (inactive) | 66.8 µM (inactive) | 40.9 µM (inactive) | 35.5 µM (inactive) | 29.1 µM (inactive) | 71 µM (inactive) | 53.6 µM (inactive) | – | 37 µM (inactive) | 62.7 µM (inactive) | 11.6 µM (inactive) | 79.4 µM (inactive) | 43.5 µM (inactive) | 29.2 µM (inactive) | 46.6 µM (inactive) | 28.4 µM (inactive) | 29.5 µM (inactive) | 26.2 µM (inactive)
3 | CO/N=C(/C)c1cccc(Nc2nc3ccccc3c3[nH]c4ccccc4c23)c1 | – | 8.97 µM (inactive) | 5.97 µM (inactive) | 10.1 µM (inactive) | 8.55 µM (inactive) | 13.5 µM (inactive) | 13.7 µM (inactive) | 1.84 µM (inactive) | 10.1 µM (inactive) | 12.7 µM (inactive) | 13.3 µM (inactive) | 10.4 µM (inactive) | 5.16 µM (inactive) | 13.8 µM (inactive) | 6.82 µM (inactive) | 14.4 µM (inactive) | 12.5 µM (inactive) | 3.96 µM (inactive) | – | –
4 | C=CCC1=CC2(OC)C(=O)C(OC)(OC)C1C1C(OC)(OC)C(=O)C(OC)=CC12CC=C (stereo not given) | > 100 µM (inactive) | > 100 µM (inactive) | > 100 µM (inactive) | > 100 µM (inactive) | > 100 µM (inactive) | > 100 µM (inactive) | – | > 100 µM (inactive) | > 100 µM (inactive) | > 100 µM (inactive) | > 100 µM (inactive) | > 100 µM (inactive) | > 100 µM (inactive) | > 100 µM (inactive) | > 100 µM (inactive) | > 100 µM (inactive) | > 100 µM (inactive) | > 100 µM (inactive) | > 100 µM (inactive) | > 100 µM (inactive)
5 | CN(Cc1nc2c(N)nc(N)nc2nc1N)c1ccc(C(=O)NC(CCC(=O)O)C(=O)O)cc1 (stereo not given) | – | 0.225 µM (active) | – | 0.561 µM (active) | < 0.01 µM (active) | 3.07 µM (inactive) | > 100 µM (inactive) | > 100 µM (inactive) | 0.033 µM (active) | < 0.01 µM (active) | 5.58 µM (inactive) | < 0.01 µM (active) | 0.0596 µM (active) | > 19.8 µM (inactive) | 17.7 µM (inactive) | 0.0378 µM (active) | 0.254 µM (active) | < 0.0163 µM (active) | – | > 100 µM (inactive)
6 | COC(=O)/C=C\S/C(=C(/c1ccccc1)n1ccc(C(=O)OC)n1)c1ccccc1 | 26.5 µM (inactive) | 47.6 µM (inactive) | > 100 µM (inactive) | 13.7 µM (inactive) | 12.4 µM (inactive) | 58.6 µM (inactive) | > 100 µM (inactive) | 24.5 µM (inactive) | 82.8 µM (inactive) | > 100 µM (inactive) | 45.3 µM (inactive) | 16.7 µM (inactive) | 8.77 µM (inactive) | 26.6 µM (inactive) | > 100 µM (inactive) | 40.2 µM (inactive) | – | 56.6 µM (inactive) | 23.7 µM (inactive) | 21.9 µM (inactive)
7 | CCOC(=O)c1cc2cc(CSc3ccccc3)ccc2oc1=O | > 100 µM (inactive) | > 100 µM (inactive) | 82.2 µM (inactive) | 43.9 µM (inactive) | 94.8 µM (inactive) | > 100 µM (inactive) | > 100 µM (inactive) | > 100 µM (inactive) | > 100 µM (inactive) | – | > 100 µM (inactive) | 91.6 µM (inactive) | 90.2 µM (inactive) | 52.1 µM (inactive) | > 100 µM (inactive) | 91.8 µM (inactive) | 89.1 µM (inactive) | > 100 µM (inactive) | > 100 µM (inactive) | > 100 µM (inactive)
8 | CC(=O)OCC(OC(C)=O)C(OC(C)=O)C(OC(C)=O)C(/C=N\Nc1nc2ccccc2c(=O)[nH]1)OC(C)=O (stereo not given) | 54.7 µM (inactive) | > 100 µM (inactive) | > 100 µM (inactive) | > 100 µM (inactive) | > 100 µM (inactive) | – | > 100 µM (inactive) | > 100 µM (inactive) | > 100 µM (inactive) | > 100 µM (inactive) | > 100 µM (inactive) | > 100 µM (inactive) | > 100 µM (inactive) | > 100 µM (inactive) | > 100 µM (inactive) | > 100 µM (inactive) | > 100 µM (inactive) | > 100 µM (inactive) | > 100 µM (inactive) | –
9 | C[C@H]1[C@@H](c2ccccc2)O[B-](c2ccccc2)(c2ccccc2)[N+]1(C)C | > 100 µM (inactive) | 76.7 µM (inactive) | 48.5 µM (inactive) | 19.3 µM (inactive) | 78.2 µM (inactive) | > 100 µM (inactive) | 37.7 µM (inactive) | 34.7 µM (inactive) | 56.5 µM (inactive) | > 100 µM (inactive) | 84.1 µM (inactive) | < 0.01 µM (active) | – | 51.9 µM (inactive) | > 100 µM (inactive) | 33.3 µM (inactive) | 57 µM (inactive) | 43.6 µM (inactive) | 54.8 µM (inactive) | > 100 µM (inactive)
10 | Nc1nnc2oc3ccc4ccccc4c3cc1-2 | 33.2 µM (inactive) | 30.9 µM (inactive) | 37.5 µM (inactive) | 32 µM (inactive) | 34 µM (inactive) | 30.6 µM (inactive) | 21.5 µM (inactive) | 11.4 µM (inactive) | 36.1 µM (inactive) | 21.9 µM (inactive) | 28.2 µM (inactive) | 32.7 µM (inactive) | 28 µM (inactive) | 54.5 µM (inactive) | 57.1 µM (inactive) | – | 56.5 µM (inactive) | 27.7 µM (inactive) | 23 µM (inactive) | 30.8 µM (inactive)
11 | S=C(Nc1ccc2c(c1)oc1ccccc12)c1cccnc1 | 65.9 µM (inactive) | 25.1 µM (inactive) | – | 22.7 µM (inactive) | 35.3 µM (inactive) | 41.1 µM (inactive) | 24.3 µM (inactive) | 30.5 µM (inactive) | > 100 µM (inactive) | – | – | 55.3 µM (inactive) | 40.9 µM (inactive) | > 10 µM (inactive) | 55.8 µM (inactive) | – | > 100 µM (inactive) | > 100 µM (inactive) | > 100 µM (inactive) | 33.7 µM (inactive)
12 | CCOc1ccc(Nc2nc3c(s2)C(=O)c2ccccc2C3=O)cc1 | 20 µM (inactive) | – | 3.36 µM (inactive) | 14.4 µM (inactive) | 14.2 µM (inactive) | 11.9 µM (inactive) | – | 13.6 µM (inactive) | 3.21 µM (inactive) | 3.19 µM (inactive) | 10.4 µM (inactive) | 5.56 µM (inactive) | 4.81 µM (inactive) | 12.1 µM (inactive) | 21.6 µM (inactive) | 10.4 µM (inactive) | 14.2 µM (inactive) | 5.08 µM (inactive) | 2.77 µM (inactive) | 0.787 µM (active)
13 | CCCCCCCC(=O)O[C@H]1[C@H]2[C@@H](CC1(C)C)C(=O)[C@]13O[C@H]1C(=O)[C@]1(CO1)[C@]23C | 3.66 µM (inactive) | – | 0.573 µM (active) | 14.3 µM (inactive) | 5.07 µM (inactive) | 4.4 µM (inactive) | 13.9 µM (inactive) | 1.05 µM (active) | 0.706 µM (active) | 0.124 µM (active) | 2.85 µM (inactive) | 17 µM (inactive) | 3.25 µM (inactive) | 46 µM (inactive) | 11.1 µM (inactive) | 6.84 µM (inactive) | 14.8 µM (inactive) | 0.251 µM (active) | 3.29 µM (inactive) | 4.46 µM (inactive)
14 | C=CC(O)C#Cc1cnc(OC)nc1OC (stereo not given) | > 100 µM (inactive) | > 100 µM (inactive) | 23.9 µM (inactive) | > 100 µM (inactive) | 38.6 µM (inactive) | > 100 µM (inactive) | 30.1 µM (inactive) | > 100 µM (inactive) | 75.9 µM (inactive) | 17.2 µM (inactive) | > 100 µM (inactive) | > 100 µM (inactive) | 14.5 µM (inactive) | > 100 µM (inactive) | > 100 µM (inactive) | > 100 µM (inactive) | > 100 µM (inactive) | 32.6 µM (inactive) | – | > 100 µM (inactive)
15 | Cc1cn(CCOCCOC(=O)NC(CCCNC(N)=O)C(=O)O)c(=O)[nH]c1=O (stereo not given) | > 100 µM (inactive) | > 100 µM (inactive) | > 100 µM (inactive) | > 100 µM (inactive) | > 100 µM (inactive) | 36 µM (inactive) | > 100 µM (inactive) | > 100 µM (inactive) | > 100 µM (inactive) | > 100 µM (inactive) | > 100 µM (inactive) | > 100 µM (inactive) | > 100 µM (inactive) | > 100 µM (inactive) | > 100 µM (inactive) | > 100 µM (inactive) | > 100 µM (inactive) | > 100 µM (inactive) | – | > 100 µM (inactive)
